Reference: patent publication US20070135383A1, “Phospholipase inhibitors, including multi-valent phospholipase inhibitors, and use thereof, including as lumen-localized phospholipase inhibitors” (priority 2005, published 2007)
Read-outs that look alike come from different tables or passages of the source.

Tests used:
[1] = molecular target: T1, mouse group 1B PLA2 (mps PLA2) (Mus musculus, UniProt Q9Z0Y2); experiment: Fluorimetric PPyrPM assay for group 1B PLA2 inhibition (Example 12); type: biochemical
T1 construct: made in house; host or cells: E. coli
T1 sequence (Q9Z0Y2 23-146): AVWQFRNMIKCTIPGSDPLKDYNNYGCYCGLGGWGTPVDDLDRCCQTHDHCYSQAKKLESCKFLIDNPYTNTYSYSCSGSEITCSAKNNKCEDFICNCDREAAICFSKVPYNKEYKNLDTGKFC
From the text: (§1) In this example, a fluorimetric assay procedure was used to evaluate the indole and indole-related compounds of the invention as inhibitors of group 1B phospholipase A2 (PLA2) from human, mouse and porcine. A description of this assay is found in articles: Leslie, C C and Gelb, M H (2004) Methods in Molecular Biology “Assaying phospholipase A2 activity”, 284:229-242; Singer, A G, et al. (2002) Journal of Biological Chemistry “Interfacial kinetic and binding properties of the complete set of human and mouse groups I, II, V, X, and XII secreted phospholipases A2”, 277:48535-48549, which are incorporated herein as references.
(§2) In general, this assay used a phosphatidylmethanol substrate with a pyrene fluorophore on the terminal end of the sn-2 fatty acyl chain. Without being bound by theory, close proximity of the pyrenes from neighboring phospholipids in a phospholipid vesicle caused the spectral properties to change relative to that of monomeric pyrene. Bovine serum albumin was present in the aqueous phase and captured the pyrene fatty acid when it is liberated from the glycerol backbone owing to the PLA2-catalyzed reaction. However, a potent inhibitor can inhibit the liberation of pyrene fatty acid from the glycerol backbone. […] The effect of a given inhibitor and inhibitor concentration on human, mouse and porcine phospholipase was determined.
(§3) Recombinant human and mouse group 1B PLA2 were cloned and expressed in E. coli as insoluble inclusion bodies. The inclusion bodies were isolated and purified by sonicating cell pellet in lysis buffer (50 mM Tris-HCl pH 7.0, 250 mM NaCl, 0.5% Triton 100), centrifugation at 12,000×g, and washing three times in washing buffer (20 mM Tris-HCl pH 7.0, 250 mM NaCl, 0.5% Triton 100). Then the inclusion bodies were dissolved in dissolving buffer (50 mM Tris-HCl pH 7.0, 250 mM NaCl, 6 M Guanidine-HCl, 1 mM DTT) and dialyzed four times against 10 volumes of refolding buffer (20 mM Tris-HCl pH 7.0, 250 mM NaCl, 0.5M Guanidine-HCl, 5% (w/w) Glycerol, 2 mM reduced glutathione and 0.4 mM oxidized glutathione) at 4° C. The correctly refolded proteins were concentrated using Amicon Stirred cell under nitrogen pressure (<70 psi) and dialyzed against 10 volumes of 50 mM Tris-HCl pH 7.0, 250 mM NaCl and 5% (w/w) glycerol. Human and mouse group 1B PLA2 were further purified by High S ion exchange and gel filtration columns.
(§4) The following reagents and equipments were obtained from commercial vendors: • 1. Porcine group 1B phospholipase A2 • 2. 1-hexadecanoyl-2-(1-pyrenedecanoyl)-sn-glycero-3-phosphomethanol (PPyrPM) • 3. Bovine serum albumin (BSA, fatty acid free) • 4. 2-Amino-2-(hydroxymethyl)-1,3-propanediol, hydrochloride (Tris-HCl) • 5. Calcium chloride • 6. Potassium chloride • 7. Solvents: DMSO, toluene, isopropanol, ethanol • 8. Molecular Devices SPECTRAmax microplate spectrofluorometer • 9. Costar 96 well black wall/clear bottom plate
(§5) The following reagents were prepared: • 10. PPyrPM stock solution (1 mg/ml) in toluene:isopropanol (1:1) • 11. ILY104 inhibitor stock solution (10 mM) in DMSO • 12. 3% (w/v) bovine serum albumin (BSA) • 13. Stock buffer: 50 mM Tris-HCl, pH 8.0, 50 mM KCl and 1 mM CaCl2
(§6) The following procedure was performed to evaluate the inhibitory potency of the evaluated compounds. • 14. An assay buffer was prepared by adding 3 ml 3% BSA to 47 ml stock buffer. • 15. Solution A was prepared by adding serially diluted inhibitors to the assay buffer. Inhibitors were three-fold diluted in stock buffer in a series of 8 from 15 uM. • 16. Solution B was prepared by adding human, mouse or porcine PLA2 to the assay buffer. This solution was prepared immediately before use to minimize enzyme activity loss. • 17. Solution C was prepared by adding 30 ul PPyrPM stock solution to 90 ul ethanol, and then all 120 ul of PPyrPM solution was transferred drop-wise over approximately 1 min to the continuously stirring 8.82 ml assay buffer to form a final concentration of 4.2 uM PPyrPM vesicle solution. • 18. […]

[2] = molecular target: T2, human group 1B PLA2 (hps PLA2) (Homo sapiens, UniProt P04054); experiment: as above; type: biochemical
T2 construct: made in house; host or cells: E. coli
T2 sequence (P04054 23-148): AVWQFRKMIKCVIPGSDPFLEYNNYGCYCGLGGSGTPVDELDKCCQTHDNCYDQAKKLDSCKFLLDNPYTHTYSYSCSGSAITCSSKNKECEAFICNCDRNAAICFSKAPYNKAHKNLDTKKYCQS
From the text: as §1, §2, §3, §4, §5, §6

[3] = molecular target: T3, porcine group 1B PLA2 (pps PLA2) (Sus scrofa, UniProt P00592); experiment: as above; type: biochemical
T3 construct: purchased
T3 sequence (P00592 23-146): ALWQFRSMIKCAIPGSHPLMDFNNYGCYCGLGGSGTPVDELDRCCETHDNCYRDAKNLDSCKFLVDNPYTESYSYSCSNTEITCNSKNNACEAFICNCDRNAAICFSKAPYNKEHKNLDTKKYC
From the text: as §1, §2, §4, §5
The following procedure was performed to evaluate the inhibitory potency of the evaluated compounds. • 14. An assay buffer was prepared by adding 3 ml 3% BSA to 47 ml stock buffer. • 15. Solution A was prepared by adding serially diluted inhibitors to the assay buffer. Inhibitors were three-fold diluted in stock buffer in a series of 8 from 15 uM. • 16. Solution B was prepared by adding human, mouse or porcine PLA2 to the assay buffer. This solution was prepared immediately before use to minimize enzyme activity loss. • 17. Solution C was prepared by adding 30 ul PPyrPM stock solution to 90 ul ethanol, and then all 120 ul of PPyrPM solution was transferred drop-wise over approximately 1 min to the continuously stirring 8.82 ml assay buffer to form a final concentration of 4.2 uM PPyrPM vesicle solution. • 18. The SPECTRAmax microplate spectrofluorometer was set at 37° C. • 19. 100 ul of solution A was added to each inhibition assay well of a costar 96 well black wall/clear bottom plate • 20. 100 ul of solution B was added to each inhibition assay well of a costar 96 well black wall/clear bottom plate. • 21. 100 ul of solution C was added to each inhibition assay well of a costar 96 well black wall/clear bottom plate. • 22. The plate was incubated inside the spectrofluorometer chamber for 3 min. • 23. The fluorescence was read using an excitation of 342 nm and an emission of 395 nm.
Evaluated compounds were tested in duplicate and their values were averaged to plot the inhibition curve and calculate the IC50. Compared to uninhibited controls, lower fluorescent signal at an emission of 395 nm in test reactions evidenced inhibition of PLA2. […] Compounds initially found to be active were repeated to confirm their inhibitory activity. […]

[4] = Mouse pharmacokinetic study, IV vs oral (Example 18); type: in vivo, male CD-1 mice; conditions: PO 30 mg/kg vs IV 3 mg/kg, serum by LC/MS/MS; for bioavailability: male, CD-1, mouse
Protocol: The plasma exposure of male CD-1 mice to indole and indole-related test articles (TAs) following intravenous (IV, 3 mg/kg) and oral (PO, 30 mg/kg) routes of administration was measured. This model was used to investigate the bioavailability of indole and indole-related TAs in mouse. Mice were selected for the study since they are an accepted species frequently used in pre-clinical evaluation of drugs intended for human use.
Male CD-1 mice (7-8 weeks old) were obtained from Charles River Laboratories (Wilmington, Mass.). Two groups (N=18 and 27) of male CD-1 mice were used for the study. Upon arrival, the animals were placed on Rodent Diet 5001 (Purina Mills, Inc., St. Louis, Mo.).
On study day (−1), indole and indole-related TAs were formulated for oral or IV dosing by mixing the formulation components with test article in the proportions described in Table 10.1. The components were mixed by vortexing and sonicating in a warming bath for 60 minutes. Animals were fasted overnight prior to start of the study. On study day (1), formulations were sonicated for an hour to make sure that no visible particles were present prior to dosing, or if present were evenly distributed in suspension. Formulated test article were stirred continuously during dosing.
All animals were weighed on study day (1) and the body weights were recorded and used for dose calculation. The animals were dosed by either PO or IV route as outlined in Table 10.2. Blood samples (0.5 mL) were collected at specified time intervals into labeled, yellow-capped Microtainer tubes. The tubes were centrifuged (8,000×g, 10 min). Serum was then pipetted off into labeled Eppendorf® tubes and frozen at −80° C. Clinical observations were recorded as needed.
Analysis of serum samples was performed by LC/MS/MS (Waters Quattro Premier, Milford, Mass.). Areas under curves (AUC) were calculated using Graphpad Prism Version 4. Bioavailability was calculated using the following equation: (Bioavailability)=(AUC0-t,oral/AUC0-t,iv)×(Doseiv/Doseoral)×100
where AUC0-t=total area under curve at the last measurable time point

[5] = mouse pancreas secreted PLA2, read-out: ILYPSA IC50 mps PLA2
[6] = human pancreas secreted PLA2, read-out: ILYPSA IC50 hps PLA2
[7] = porcine pancreas secreted PLA2, read-out: ILYPSA IC50 pps PLA2

Structure (SMILES)	IC50 [1]	IC50 [2]	IC50 [3]	bioavailability [4]	Bioavailability (%) [4]	IC50 [1, 5]	IC50 [2, 6]	IC50 [3, 7]	bioavailability ([4]; in vivo)
Cc1c(C(=O)C(N)=O)c2c(OCC(=O)O)nccc2n1Cc1ccccc1 [ILY-II-1, (3-Aminooxalyl-1-benzyl-2-methyl-1H-pyrrolo[3,2-c]pyridin-4-yloxy)-acetic acid]	230 nM	1150 nM	70 nM	11%	–	–	–	–	–
Cc1c(C(=O)C(N)=O)c2c(OCC(=O)NS(C)(=O)=O)nccc2n1Cc1ccccc1-c1ccccc1 [ILY-II-14, 2-(3-(2-amino-2-oxoacetyl)-1-(biphenyl-2-ylmethyl)-2-methyl-1H-pyrrolo[3,2-c]pyridin-4-yloxy)-N-(methylsulfonyl)acetamide]	590 nM	690 nM	40 nM	14.7%	–	–	–	–	–
Cc1c(C(=O)C(N)=O)c2c(OCC(=O)NS(=O)(=O)CCCC(=O)O)cccc2n1Cc1ccccc1 [ILY-IV-40, 4-[2-(3-Aminooxalyl-1-benzyl-2-methyl-1H-indol-4-yloxy)-acetylsulfamoyl]-butyric acid]	–	–	–	–	0.50%	–	–	–	–
Cc1c(C(=O)C(N)=O)c2c(OCC(=O)O)cccc2n1CCCCCCCCCCCCSCCCCCCCCSCCCCCCCCCCCCn1c(C)c(C(=O)C(N)=O)c2c(OCC(=O)O)cccc21 [ILY-V-26, 2,2′-(1,1′-(12,12′-(Octane-1,8-diylbis(sulfanediyl))bis(dodecane-12,1-diyl))bis(3-(2-amino-2-oxoacetyl)-2-methyl-1H-indole-4,1-diyl))bis(oxy)diacetic acid]	–	–	–	0%	–	340 nM	240 nM	260 nM	–
Cc1c(C(=O)C(N)=O)c2c(OCC(=O)O)cccc2n1CCCCCCCCCCCCOc1ccc(C(C)(C)c2ccc(OCCCCCCCCCCCCn3c(C)c(C(=O)C(N)=O)c4c(OCC(=O)O)cccc43)cc2)cc1 [ILY-V-30, 2,2′-(1,1′-(12,12′-(4,4′-(propane-2,2-diyl)bis(4,1-phenylene))bis(oxy)bis(dodecane-12,1-diyl))bis(3-(2-amino-2-oxoacetyl)-2-methyl-1H-indole-4,1-diyl))bis(oxy)diacetic acid]	–	–	–	–	–	190 nM	430 nM	< 20 nM	0%
Cc1c(C(=O)C(N)=O)c2c(OCC(=O)O)cccc2n1CCCCCCCCCCCCOc1cc(OCCCCCCCCCCCCn2c(C)c(C(=O)C(N)=O)c3c(OCC(=O)O)cccc32)cc(OCCCCCCCCCCCCn2c(C)c(C(=O)C(N)=O)c3c(OCC(=O)O)cccc32)c1 [ILY-V-32, 2,2,′,2″-(1,1′,1″-(12,12′,12″-(benzene-1,3,5-triyltris(oxy))tris(dodecane-12,1-diyl))tris(3-(2-amino-2-oxoacetyl)-2-methyl-1H-indole-4,1-diyl))tris(oxy)triacetic acid]	–	–	–	–	0.00%	130 nM	60 nM	90 nM	–
Cc1c(C(=O)C(N)=O)c2c(OC(C(=O)O)C(C)C)cccc2n1CCCCCCCCCCCCn1c(C)c(C(=O)C(N)=O)c2c(OC(C(=O)O)C(C)C)cccc21 (stereo not drawn) [ILY-V-44, 2-(3-Aminooxalyl-1-{12-[3-aminooxalyl-4-(1-carboxy-2-methyl-propoxy)-2-methyl-indol-1-yl]-dodecyl}-2-methyl-1H-indol-4-yloxy)-3-methyl-butyric acid]	–	–	–	–	–	480 nM	280 nM	50 nM	–
Cc1c(C(=O)C(N)=O)c2c(OCC(=O)O)cccc2n1CCCCCCCCCCCCNCCCCCCCCCCCCn1c(C)c(C(=O)C(N)=O)c2c(OCC(=O)O)cccc21 [ILY-V-45, (3-Aminooxalyl-1-{12-[12-(3-aminooxalyl-4-carboxymethoxy-2-methyl-indol-1-yl)-dodecylamino]-dodecyl}-2-methyl-1H-indol-4-yloxy)-acetic acid]	–	–	–	–	–	70 nM	120 nM	40 nM	–
Cc1c(C(=O)C(N)=O)c2c(OCC(=O)O)ccnc2n1Cc1ccccc1 [ILY-VII-1, 2-(1-Benzyl-4-yloxyacetic acid-2-methyl-1H-pyrrolo[2,3-b]pyridin-3-yl)-2-oxoacetamide]	–	–	–	–	–	2140 nM	13700 nM	60 nM	–
